Test results published in ChEMBL document CHEMBL1121801, “Salicylamide derivatives related to medroxalol with alpha- and beta-adrenergic antagonist and antihypertension activity” (J Med Chem, 1981).

Tests used:
[1] = species: Oryctolagus cuniculus; assay: Ratio of pA2 for beta-adrenergic receptor to that of alpha-adrenergic receptor
[2] = target: T1, Adrenergic receptor alpha-1 (Homo sapiens, UniProt P35348+P25100+P35368); assay: In vitro blocking activity against alpha adrenergic receptor, isolated from rabbit aortic strip; assay type: protein assay, Oryctolagus cuniculus
T1 sequence (P35348 whole entry): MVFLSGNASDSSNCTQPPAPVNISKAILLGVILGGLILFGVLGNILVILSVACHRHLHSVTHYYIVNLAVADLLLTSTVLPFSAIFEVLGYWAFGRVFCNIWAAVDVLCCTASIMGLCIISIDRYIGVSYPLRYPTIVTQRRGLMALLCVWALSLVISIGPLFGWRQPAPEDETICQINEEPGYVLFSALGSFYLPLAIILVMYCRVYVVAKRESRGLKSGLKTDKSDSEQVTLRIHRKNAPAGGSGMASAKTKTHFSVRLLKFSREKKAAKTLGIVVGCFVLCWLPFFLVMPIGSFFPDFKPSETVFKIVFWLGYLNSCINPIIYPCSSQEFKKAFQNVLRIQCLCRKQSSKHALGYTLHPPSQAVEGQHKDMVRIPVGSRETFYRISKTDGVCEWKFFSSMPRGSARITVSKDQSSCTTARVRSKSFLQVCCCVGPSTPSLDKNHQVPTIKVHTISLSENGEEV
T1 sequence (P25100 whole entry): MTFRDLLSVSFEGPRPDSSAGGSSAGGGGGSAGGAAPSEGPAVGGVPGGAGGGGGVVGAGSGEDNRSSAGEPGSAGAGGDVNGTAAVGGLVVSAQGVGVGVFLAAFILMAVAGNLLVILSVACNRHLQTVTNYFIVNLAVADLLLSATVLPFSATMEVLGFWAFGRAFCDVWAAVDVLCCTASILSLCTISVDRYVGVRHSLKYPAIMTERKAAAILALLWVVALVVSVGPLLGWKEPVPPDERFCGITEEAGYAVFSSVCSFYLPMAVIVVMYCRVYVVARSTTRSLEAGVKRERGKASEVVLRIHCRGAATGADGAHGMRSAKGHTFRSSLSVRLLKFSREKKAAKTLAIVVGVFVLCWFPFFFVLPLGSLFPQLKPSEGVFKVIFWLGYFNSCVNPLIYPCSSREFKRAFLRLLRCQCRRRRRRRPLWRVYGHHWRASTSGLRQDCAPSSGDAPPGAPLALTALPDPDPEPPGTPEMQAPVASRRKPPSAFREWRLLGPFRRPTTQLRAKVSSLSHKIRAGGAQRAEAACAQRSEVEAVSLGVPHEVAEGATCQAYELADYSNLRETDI
T1 sequence (P35368 whole entry): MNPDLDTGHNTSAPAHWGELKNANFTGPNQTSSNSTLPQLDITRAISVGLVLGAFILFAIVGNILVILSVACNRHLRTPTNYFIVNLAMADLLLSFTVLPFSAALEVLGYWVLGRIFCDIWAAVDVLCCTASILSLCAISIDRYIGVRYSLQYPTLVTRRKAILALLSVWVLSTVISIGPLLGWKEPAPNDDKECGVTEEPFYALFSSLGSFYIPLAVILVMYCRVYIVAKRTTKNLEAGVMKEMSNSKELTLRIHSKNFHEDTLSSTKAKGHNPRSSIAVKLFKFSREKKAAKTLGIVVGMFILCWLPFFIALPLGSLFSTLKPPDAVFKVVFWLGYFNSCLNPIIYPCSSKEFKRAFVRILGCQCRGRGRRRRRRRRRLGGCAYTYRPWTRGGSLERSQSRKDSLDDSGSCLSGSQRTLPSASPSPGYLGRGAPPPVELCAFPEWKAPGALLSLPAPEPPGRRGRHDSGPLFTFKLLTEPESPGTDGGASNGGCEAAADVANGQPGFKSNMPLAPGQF

[3] = test system: Rattus norvegicus; assay: Antihypertensive activity in spontaneously hypertensive rats(SHR) at 50 mg/kg peroral dose after 1 h, expressed as decrease in systolic blood pressure; assay type: functional, Artery; conditions: route oral
[4] = target: Adrenergic receptor beta (Homo sapiens, UniProt P08588+P07550+P13945); assay: In vitro blocking activity against beta adrenergic receptor, isolated from guinea pig atria; assay type: protein assay
[5] = species: Cavia porcellus; assay: spasmolytic activity in isolated guinea pig ileum preparation;- log KB; (Bacl2); assay type: functional, organism-based; conditions: read-out: pA2 (converted)
[6] = test system: Rattus norvegicus; assay: Antihypertensive activity in spontaneously hypertensive rats(SHR) at 50 mg/kg peroral dose after 4 h, expressed as decrease in systolic blood pressure; assay type: functional, Artery; conditions: route oral

COC(=O)c1cc(C(O)CN2CCC(n3c(O)nc4ccccc43)CC2)ccc1O.Cl (configuration not stated)
Ratio [1]: 0.06
pA2 [2]: 6.94
BP decrease [3]: 52 mmHg
pA2 [4]: 5.71
Kb [5]: 1.26 µM
BP decrease [6]: 37 mmHg

COC(=O)c1cc(C(O)CNC(C)CCc2ccc3c(c2)OCO3)ccc1OC.Cl (configuration not stated)
Ratio [1]: 372
pA2 [2]: 5.56
BP decrease [3]: 44 mmHg
pA2 [4]: 8.1
Kb [5]: 2.75 µM
BP decrease [6]: 22 mmHg

NC(=O)c1cc(C(O)CN2CCN(C(=O)c3ccco3)CC2)ccc1O (configuration not stated)
pA2 [2]: < 5
BP decrease [3]: 30 mmHg
pA2 [4]: < 5
Kb [5]: > 100 µM
BP decrease [6]: 28 mmHg

COC(=O)c1cc(C(O)CN2CCN(C(=O)c3ccco3)CC2)ccc1O.Cl (configuration not stated)
pA2 [2]: < 5
BP decrease [3]: 37 mmHg
pA2 [4]: < 5
Kb [5]: 17.4 µM
BP decrease [6]: 15 mmHg

Cl.NC(=O)c1cc(C(O)CN2CCN(c3cccc(C(F)(F)F)c3)CC2)ccc1O (configuration not stated)
Ratio [1]: 3.7
pA2 [2]: 6.33
BP decrease [3]: 1 mmHg
pA2 [4]: 6.9
Kb [5]: 1.82 µM
BP decrease [6]: 18 mmHg

COC(=O)c1cc(C(O)CN2CCN(c3ccccc3OC)CC2)ccc1OC.Cl (configuration not stated)
Ratio [1]: 0.3
pA2 [2]: 7
BP decrease [3]: 37 mmHg
pA2 [4]: 6.41
Kb [5]: 34.7 µM
BP decrease [6]: 35 mmHg

NC(=O)c1cc(C(O)CNCC2COc3ccccc3O2)ccc1O (configuration not stated)
Ratio [1]: 0.4
pA2 [2]: 6.2
BP decrease [3]: 24 mmHg
pA2 [4]: 5.84
Kb [5]: 26.9 µM
BP decrease [6]: 18 mmHg

Cl.NC(=O)c1cc(C(O)CN2CCN(c3ccccc3)CC2)ccc1O (configuration not stated)
pA2 [2]: 7.04
BP decrease [3]: 7 mmHg
pA2 [4]: 4.19
BP decrease [6]: 9 mmHg

COc1ccc(C(O)CN2CCN(c3ccccc3)CC2)cc1C(N)=O.Cl (configuration not stated)
pA2 [2]: 6.54
BP decrease [3]: 38 mmHg
pA2 [4]: < 5
Kb [5]: 64.6 µM
BP decrease [6]: 25 mmHg

Cl.NC(=O)c1cc(C(O)CN2CCN(c3ccccn3)CC2)ccc1O (configuration not stated)
Ratio [1]: 0.2
pA2 [2]: 6.08
BP decrease [3]: 16 mmHg
pA2 [4]: 5.37
Kb [5]: 126 µM
BP decrease [6]: 13 mmHg

CNC(=O)c1cc(C(O)CN2CCN(c3ccc(OC)cc3)CC2)ccc1O.Cl (configuration not stated)
Ratio [1]: 0.2
pA2 [2]: 5.47
BP decrease [3]: 20 mmHg
pA2 [4]: 5.17
Kb [5]: 15.1 µM
BP decrease [6]: 14 mmHg

CC(C)NCC(O)COc1cccc2ccccc12.Cl (configuration not stated) [PROPRANOLOL HYDROCHLORIDE]
BP decrease [3]: 28 mmHg
BP decrease [6]: 46 mmHg

CCOc1ccc(C(O)CN2CCN(c3ccccc3)CC2)cc1C(N)=O.Cl (configuration not stated)
Ratio [1]: 0.1
pA2 [2]: 6.27
BP decrease [3]: 22 mmHg
pA2 [4]: 5.27
Kb [5]: 21.4 µM
BP decrease [6]: 19 mmHg

NC(=O)c1cc(C(O)CN2CCN(c3ccc(Cl)cc3)CC2)ccc1O (configuration not stated)
Ratio [1]: 0.2
pA2 [2]: 6.87
BP decrease [3]: 49 mmHg
pA2 [4]: 6.17
Kb [5]: 26.3 µM
BP decrease [6]: 56 mmHg

COC(=O)c1cc(C(O)CNCC2COc3ccccc3O2)ccc1O.Cl (configuration not stated)
Ratio [1]: 0.5
pA2 [2]: 6.21
BP decrease [3]: 46 mmHg
pA2 [4]: 5.92
Kb [5]: 4.07 µM
BP decrease [6]: 31 mmHg

Cl.NC(=O)c1cc(C(O)CN2CCN(Cc3ccccc3)CC2)ccc1O (configuration not stated)
Ratio [1]: 0.9
pA2 [2]: 5.13
BP decrease [3]: 35 mmHg
pA2 [4]: 5.07
Kb [5]: > 74.1 µM
BP decrease [6]: 40 mmHg
